Here are results for two substances from patent US11026419B2, “Silver- and copper-chelating ionic liquids, polymers, and gels, and uses thereof” (Massachusetts Institute of Technology, priority 2016, dated 2021).

For one series, the system named is HEK cells. Briefly: Cell viability assay, LDH release. To be noted: 24 hours treatment, at the higher concentrations tested. The series is classed as cell-based, human. The method, then:
The toxicity of the compounds towards human cells was tested using HEK cell lines (FIG. 5), which were cultured in DMEM medium and 10% Fetal Bovine Serum at 37° C. in 5% CO2. 5×10^4 cells were seeded into 96-well plates 24 hours before treatment. Incremental concentrations of ionic liquids (diluted 2×) were added into the wells for another 24 hours. The release of the cytosolic enzyme lactate dehydrogenase (LDH) was then measured, following the manual of Pierce LDH Cytotoxicity Assay Kit (Thermofisher, Mass., USA). Untreated cells (live cells) and cells treated with lysis buffer for 2 hours (dead cells) were used as the reference for normalization. All experiments were performed in triplicate. […] Experiments were repeated using an MTX assay with the trend in the results matching those of the LDH assay.
In general terms: LDH in the medium is a marker of cell lysis.

Series [1] relates to Pseudomonas aeruginosa (PA14). Briefly: Antimicrobial sensitivity, colony forming units (CFU) of PA14. Type of series: cell-based. The note with it: PA14, compared with control samples (FIG. 2). The source says:
Antimicrobial sensitivity experiments used Pseudomonas aeruginosa (PA14, FIG. 2) a gram-negative monoflagellated bacterium. This is a model bacterium for such studies as it is […] and is an opportunistic human pathogen, colonizing immunocompromised patients, such as those with cystic fibrosis, cancer, or AIDS [15].

Another series has as its system PA14. Briefly: Turbidity of PA14 solutions as indication of bacterial growth. The series is classed as cell-based, Pseudomonas aeruginosa. The note with it: PA14 solution with 10 uL IL (FIG. 3).

Turning to “N-butyl(ethylenediaminium) bis(trifluoroethanesulfonyl)amide [[HButylen][Tf2N]]”, in the series with HEK cells, the reduced cell viability is on record as approximately 50%.

As to “N-hexylethylenediaminium bis(trifluoroethanesulfonyl)amide [[HHex][Tf2N]]”, the “drop in the colony-forming unit (CFU)” value in series [1] is given as ~3 orders of magnitude. The “turbidity / bacteria growth” value with PA14 is recorded as “no turbidity”. For the same substance, in the series on HEK cells, the reduced cell viability was approximately 50%.
